# Measurements from ChEMBL document CHEMBL1201862, “PubChem BioAssay data set” (2004).
# Activity calls are given as the source filed them. Rule as the data show it, for most assays here: actives have a measured EC50 and inactives only a lower limit.
# Columns and labels:
# [1] = biological target: T1, RNA-binding protein pos-1 (Caenorhabditis elegans, UniProt G5EF15); experiment: disruptors of C. elegans POS-1 RNA interaction – biochemical, fluorescence polarization, dose response (AID 1964);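 also: purified POS-1 fused to maltose binding protein made in E. coli; potency of compounds blocking POS-1 binding to fluorescent RNA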
# T1 sequence (G5EF15 whole entry): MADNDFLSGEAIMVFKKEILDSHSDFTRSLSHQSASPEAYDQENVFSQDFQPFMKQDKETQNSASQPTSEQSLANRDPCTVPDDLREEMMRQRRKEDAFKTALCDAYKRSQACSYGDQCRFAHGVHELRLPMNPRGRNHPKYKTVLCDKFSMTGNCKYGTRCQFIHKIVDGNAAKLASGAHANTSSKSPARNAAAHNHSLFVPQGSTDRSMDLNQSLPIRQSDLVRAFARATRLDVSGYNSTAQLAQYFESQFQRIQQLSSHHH
# [2] = biological target: T2, Zinc finger protein mex-5 (Caenorhabditis elegans, UniProt Q9XUB2); experiment: potency of MEX-5 RNA-binding blockers – biochemical, C. elegans, fluorescence polarization, dose response (AID 1960)
# T2 sequence (Q9XUB2 whole entry): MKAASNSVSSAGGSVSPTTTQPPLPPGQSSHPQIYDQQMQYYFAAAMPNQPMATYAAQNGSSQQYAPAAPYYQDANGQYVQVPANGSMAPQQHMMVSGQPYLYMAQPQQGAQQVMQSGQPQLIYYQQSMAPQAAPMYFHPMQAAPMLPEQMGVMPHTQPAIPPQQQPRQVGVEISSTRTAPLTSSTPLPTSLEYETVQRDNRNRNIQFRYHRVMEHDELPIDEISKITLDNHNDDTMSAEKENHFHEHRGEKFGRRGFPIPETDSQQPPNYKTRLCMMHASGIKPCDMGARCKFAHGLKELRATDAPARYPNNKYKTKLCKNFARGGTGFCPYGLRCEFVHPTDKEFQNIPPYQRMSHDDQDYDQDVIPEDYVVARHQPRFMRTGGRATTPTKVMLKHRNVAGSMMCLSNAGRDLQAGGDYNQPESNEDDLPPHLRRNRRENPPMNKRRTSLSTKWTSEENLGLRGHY
# [3] = P. falciparum Dd2 growth inhibitors, dose response, SYBR Green, cherry-picked samples (AID 1159567); type: functional, cell-based
# [4] = biological target: T3, Aminopeptidase N (Plasmodium falciparum FcB1/Columbia, UniProt O96935); experiment: malaria alanyl aminopeptidase activity blockers – biochemical, fluorogenic H-Leu-NHMec substrate, 1536-well (AID 1445); design: species or system Plasmodium falciparum 3D7, 3D7
# T3 sequence (O96935 whole entry): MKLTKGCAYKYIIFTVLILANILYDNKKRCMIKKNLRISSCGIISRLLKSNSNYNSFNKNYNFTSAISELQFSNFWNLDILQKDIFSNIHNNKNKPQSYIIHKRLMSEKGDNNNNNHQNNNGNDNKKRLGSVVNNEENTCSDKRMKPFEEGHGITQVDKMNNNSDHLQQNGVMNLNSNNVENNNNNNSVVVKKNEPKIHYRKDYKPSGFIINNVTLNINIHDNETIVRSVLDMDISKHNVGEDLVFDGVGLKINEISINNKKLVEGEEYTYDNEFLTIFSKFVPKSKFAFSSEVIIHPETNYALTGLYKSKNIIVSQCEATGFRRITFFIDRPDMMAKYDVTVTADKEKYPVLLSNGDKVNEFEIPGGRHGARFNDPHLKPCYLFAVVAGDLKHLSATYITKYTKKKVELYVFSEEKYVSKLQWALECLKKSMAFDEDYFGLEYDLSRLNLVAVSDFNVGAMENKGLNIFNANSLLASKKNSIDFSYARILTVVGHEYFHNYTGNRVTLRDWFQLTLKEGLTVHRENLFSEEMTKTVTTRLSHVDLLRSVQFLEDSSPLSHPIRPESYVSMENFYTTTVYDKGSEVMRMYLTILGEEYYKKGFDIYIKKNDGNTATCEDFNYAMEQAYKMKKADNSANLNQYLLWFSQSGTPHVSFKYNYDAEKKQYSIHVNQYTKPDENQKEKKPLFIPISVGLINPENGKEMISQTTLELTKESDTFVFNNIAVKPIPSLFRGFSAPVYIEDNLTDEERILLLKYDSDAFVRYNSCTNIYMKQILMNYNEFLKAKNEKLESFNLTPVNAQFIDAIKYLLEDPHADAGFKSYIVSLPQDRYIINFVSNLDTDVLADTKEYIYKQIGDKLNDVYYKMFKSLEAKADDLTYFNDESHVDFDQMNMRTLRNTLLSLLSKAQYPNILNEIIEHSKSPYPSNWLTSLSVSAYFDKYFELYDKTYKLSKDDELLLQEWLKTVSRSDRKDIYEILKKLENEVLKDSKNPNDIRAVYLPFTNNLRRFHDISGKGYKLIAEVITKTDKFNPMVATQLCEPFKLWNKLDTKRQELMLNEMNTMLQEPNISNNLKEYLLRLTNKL
# [5] = fluconazole-exposed Candida albicans growth modulators – fluorescence, retest, confirmation (AID 2467); type: functional, cell-based
# [6] = NIH-3T3 fibroblast cytotoxicity, dose response, cytotoxicity control, cell-based, fluorescence, Alamar Blue, secondary assay (AID 2327); type: functional;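 also: NIH-3T3 mouse fibroblasts cultured with fluconazole at 8 µg/mL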
# [7] = biological target: T4, Ubiquitin-conjugating enzyme E2 N (Homo sapiens, UniProt P61088); type: functional;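 also: Dose-response confirmation in a TR-FRET assay detecting UBC13-driven polyubiquitin chain formation, inhibition measured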
# T4 sequence (P61088 whole entry): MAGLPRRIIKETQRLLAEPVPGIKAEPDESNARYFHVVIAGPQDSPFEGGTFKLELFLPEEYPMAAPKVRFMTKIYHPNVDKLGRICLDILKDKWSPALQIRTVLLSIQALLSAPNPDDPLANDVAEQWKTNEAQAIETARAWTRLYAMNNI
# [8] = Trypanosoma cruzi growth suppression in host cells – NIH3T3 host cells, beta-gal luminescence, confirmation (AID 2044); type: functional, cell-based;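 also: intracellular parasites grown in NIH/3T3 mouse fibroblasts as host cells; luminescent beta-galactosidase reporter signal from transgenic T. cruzi replicating inside host cells; inhibitors lower the luminescence signal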
# [9] = NIH3T3 cell viability loss – ATP luminescence, mouse fibroblasts, counter-screen, dose response (AID 2010); type: functional, cell-based;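 also: cells exposed to compound for about 90 hours before reading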
# [10] = Luminescence Cell-Based Dose Confirmation HTS to Identify Inhibitors of Platelet Dense Granule Release. [Related pubchem assays: 1663 (Primary HTS), 1678 (Summary of Project)]; type: functional
# [11] = biological target: Luciferin 4-monooxygenase (Photinus pyralis, UniProt P08659); experiment: inhibition of purified Photinus pyralis luciferase – biochemical, luminescence, dose response (AID 1891)
# Chain of Luciferin 4-monooxygenase (P08659 whole entry): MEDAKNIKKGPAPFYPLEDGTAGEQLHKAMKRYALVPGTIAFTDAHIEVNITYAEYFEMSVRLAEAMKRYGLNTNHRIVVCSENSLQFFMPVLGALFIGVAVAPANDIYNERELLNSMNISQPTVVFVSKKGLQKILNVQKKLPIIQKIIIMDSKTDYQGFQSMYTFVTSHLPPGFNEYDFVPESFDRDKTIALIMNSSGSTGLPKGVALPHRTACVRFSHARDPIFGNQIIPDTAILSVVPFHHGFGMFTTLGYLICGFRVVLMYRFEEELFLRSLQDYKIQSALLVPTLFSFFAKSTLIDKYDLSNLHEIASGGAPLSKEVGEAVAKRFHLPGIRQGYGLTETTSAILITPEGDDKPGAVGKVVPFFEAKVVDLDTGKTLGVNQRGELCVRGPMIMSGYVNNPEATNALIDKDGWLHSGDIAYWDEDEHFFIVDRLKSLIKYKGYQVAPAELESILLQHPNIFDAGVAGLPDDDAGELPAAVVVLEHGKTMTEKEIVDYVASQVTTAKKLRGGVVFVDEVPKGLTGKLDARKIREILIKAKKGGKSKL
# [12] = biological target: T5, Replicative DNA helicase DnaB (Mycobacterium tuberculosis, UniProt P9WMR3); experiment: DnaB intein splicing inhibitors, dose response, biochemical, cell-free fluorescence (AID 449749); type: functional
# T5 sequence (P9WMR3 whole entry): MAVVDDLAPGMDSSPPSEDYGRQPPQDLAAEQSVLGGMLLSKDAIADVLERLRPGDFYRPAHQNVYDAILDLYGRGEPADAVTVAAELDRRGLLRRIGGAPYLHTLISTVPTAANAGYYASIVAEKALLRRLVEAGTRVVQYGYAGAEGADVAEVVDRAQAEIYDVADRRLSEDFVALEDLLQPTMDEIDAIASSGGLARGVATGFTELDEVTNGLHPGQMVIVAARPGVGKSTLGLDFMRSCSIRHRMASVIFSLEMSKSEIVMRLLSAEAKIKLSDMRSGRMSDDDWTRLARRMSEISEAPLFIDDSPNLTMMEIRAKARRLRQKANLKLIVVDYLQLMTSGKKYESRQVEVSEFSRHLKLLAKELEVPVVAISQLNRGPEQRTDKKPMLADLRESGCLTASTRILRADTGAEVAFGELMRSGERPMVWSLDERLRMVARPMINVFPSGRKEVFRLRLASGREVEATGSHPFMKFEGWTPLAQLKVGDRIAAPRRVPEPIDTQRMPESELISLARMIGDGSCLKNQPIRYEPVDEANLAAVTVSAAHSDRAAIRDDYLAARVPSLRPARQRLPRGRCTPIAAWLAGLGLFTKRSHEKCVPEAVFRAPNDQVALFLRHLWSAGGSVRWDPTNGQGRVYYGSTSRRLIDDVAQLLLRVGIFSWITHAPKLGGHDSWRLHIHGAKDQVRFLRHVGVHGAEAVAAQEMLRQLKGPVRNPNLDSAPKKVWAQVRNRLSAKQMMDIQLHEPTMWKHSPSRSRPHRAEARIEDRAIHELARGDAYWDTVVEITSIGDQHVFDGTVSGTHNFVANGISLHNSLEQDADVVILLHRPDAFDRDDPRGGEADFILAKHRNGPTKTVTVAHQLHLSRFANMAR
# [13] = biological target: T6, Protein RecA (Mycobacterium tuberculosis, UniProt P9WHJ3); experiment: Fluorescence Cell-Free Homogeneous Dose Retest to Identify Inhibitors of RecA-Intein Splicing Activity. [Related pubchem assays (depositor defined):AID2097, AID2223, AID489010, AID492950]; type: functional
# T6 sequence (P9WHJ3 whole entry): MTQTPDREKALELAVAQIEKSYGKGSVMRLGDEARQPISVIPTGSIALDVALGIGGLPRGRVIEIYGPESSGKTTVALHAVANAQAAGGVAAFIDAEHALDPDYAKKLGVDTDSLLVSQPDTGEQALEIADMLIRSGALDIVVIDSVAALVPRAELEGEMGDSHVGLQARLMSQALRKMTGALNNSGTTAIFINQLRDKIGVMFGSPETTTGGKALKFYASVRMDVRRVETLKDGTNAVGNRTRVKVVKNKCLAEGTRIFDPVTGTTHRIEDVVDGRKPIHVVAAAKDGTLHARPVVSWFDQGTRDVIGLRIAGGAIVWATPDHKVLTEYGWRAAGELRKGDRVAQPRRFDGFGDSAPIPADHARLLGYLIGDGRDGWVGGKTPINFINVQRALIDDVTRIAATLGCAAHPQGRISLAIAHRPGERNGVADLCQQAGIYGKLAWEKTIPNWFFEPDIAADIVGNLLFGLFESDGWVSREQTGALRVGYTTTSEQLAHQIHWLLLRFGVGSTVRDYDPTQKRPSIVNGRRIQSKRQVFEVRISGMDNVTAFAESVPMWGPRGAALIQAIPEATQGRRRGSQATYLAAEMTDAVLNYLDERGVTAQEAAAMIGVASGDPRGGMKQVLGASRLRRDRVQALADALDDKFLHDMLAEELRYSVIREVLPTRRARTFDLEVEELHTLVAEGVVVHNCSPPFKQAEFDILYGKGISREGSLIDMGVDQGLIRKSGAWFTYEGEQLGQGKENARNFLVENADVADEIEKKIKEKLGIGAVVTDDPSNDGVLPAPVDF
# [14] = reduction of Shn3 3'UTR-driven luciferase in osteoblasts – cell-based, Clone20 osteoblasts, firefly luciferase, cherry-picked, dose response (AID 624132); type: functional;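 also: firefly luciferase luminescence from reporter carrying the Shn3 3'UTR in osteoblasts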
smiles,measurement,setting,value
Cc1ccc(/C=C/C(=O)c2ccc(N3CCOCC3)cc2)s1,EC50,[1],> 300 µM (not active)
same,EC50,[2],> 300 µM (not active)
O=C1CN(S(=O)(=O)c2ccccc2)C[C@@H]2[C@H](c3ccc(C#CCc4ccccc4)cc3)[C@@H](CO)N12,AC50,[3],4.23 µM (active)
C[C@H]1CN([C@@H](C)CO)S(=O)(=O)c2ccc(C#Cc3ccccc3)cc2O[C@H]1CN(C)C(=O)C1CC1,AC50,[3],3.95 µM (active)
CCc1nnc(NS(=O)(=O)c2ccc(NC(=S)NC(=O)c3cccs3)cc2)s1,IC50,[4],35.4 µM (active)
CCN(CC)C(=O)Cn1c(=O)n(-c2ccccc2)c(=O)c2c3c(sc21)CCC3,EC50,[5],> 38 µM (not active)
same,IC50,[4],51.2 µM (active)
same,EC50,[6],> 160 µM (inactive)
Cc1ccc(/C=N/NC(=O)c2nnn(-c3nonc3N)c2-c2cccs2)cc1,EC50,[1],> 300 µM (not active)
same,EC50,[2],> 300 µM (not active)
CC(C)(C)OC(=O)[C@H](Cc1ccccc1)NC(=O)c1nc[nH]c1C(=O)N[C@@H](CCCCN)C(=O)OC(C)(C)C,IC50,[7],> 20 µM (inactive)
CC(=O)NC(c1ccco1)c1cc(Cl)c2ccccc2c1O (stereo not given),IC50,[7],> 20 µM (inactive)
COc1ccc(C2C(C#N)=C(N)OC3=C2C(=O)CC(C)C3)c(OC)c1OC (stereo not given),EC50,[1],> 300 µM (not active)
same,EC50,[2],> 300 µM (not active)
COc1cc(CN2[C@@H]3CNC[C@H]2[C@@H]3c2ccc(-c3ccccc3)cc2)cc(OC)c1,AC50,[3],6.99 µM (active)
O=C1NC(=O)N(c2ccccc2)C(=O)/C1=C\NN1C(=O)c2cccc3cccc(c23)C1=O,EC50,[1],> 300 µM (not active)
same,EC50,[2],72 µM (active)
N=c1c(C(=O)NCC2CCCO2)cc2c(=O)n3ccccc3nc2n1Cc1ccccc1Cl (stereo not given),EC50,[1],104 µM (active)
same,EC50,[2],195 µM (active)
CN(C)Cc1c(O)ccc2c3c(c(=O)oc12)CCCCC3,IC50,[4],44.5 µM (active)
NC(=O)c1sc2nnc(-c3ccccc3)c(-c3ccccc3)c2c1N,EC50,[1],> 300 µM (not active)
same,EC50,[2],> 300 µM (not active)
CN(C)c1oc(-c2cccs2)nc1C#N,IC50,[4],104 µM (active)
Cc1ccc(N/C=C2/Sc3ccccc3NC2=O)cc1,EC50,[8],0.806 µM (active)
same,EC50,[1],> 300 µM (not active)
same,EC50,[9],> 30 µM (not active)
same,EC50,[2],> 300 µM (inconclusive)
O=C(C[C@@H]1CC[C@@H]2[C@H](COC[C@@H](O)CN2S(=O)(=O)c2ccccc2)O1)NCc1ccc(-c2ccccc2)cc1,AC50,[3],6.32 µM (active)
Cc1noc(NS(=O)(=O)c2ccc(NC(=O)C(CC(C)C)N3C(=O)c4ccccc4C3=O)cc2)c1C (stereo not given),IC50,[4],7.56 µM (active)
CSc1nnc(N2C(=O)C(O)=C(C(=O)c3ccco3)C2c2ccc(F)cc2)s1 (stereo not given),EC50,[1],> 150 µM (not active)
same,EC50,[10],> 112 µM (not active)
same,EC50,[11],> 112 µM (not active)
same,EC50,[2],82.8 µM (active)
CO[C@@H]1CN(C)C(=O)c2cc(NC(=O)Nc3cccc(Cl)c3)ccc2OC[C@H](C)NC[C@H]1C,AC50,[3],6.78 µM (active)
COCCCNC(=O)C(C#N)c1nc2ccccc2nc1N1CCCC1 (stereo not given),EC50,[1],23.8 µM (active)
same,EC50,[2],> 300 µM (inconclusive)
O=c1oc2c(CN3CCOCC3)c(O)ccc2c2c1CCCC2,IC50,[4],23.7 µM (active)
Cc1nn(-c2ccccc2)c2c1C(c1ccccc1)C(C#N)=C(N)O2 (stereo not given),AC50,[12],16.8 µM (active)
same,EC50,[13],9.07 µM (active)
CCOC(=O)Cn1c(S(=O)(=O)Cc2ccccc2Cl)nc(-c2ccccc2)c1-c1ccccc1,AC50,[14],9.29 µM (active)
